Results reported in patent publication US10835614B2, “Poly(diol fumarates) and poly(diol fumarate-co-succinates)” (William Marsh Rice University, priority 2016, dated 2020).
Converted amounts (≈) assume the structure as drawn.

Legend:
Test in all cases: MIC, CLSI M38-A2 broth microdilution antifungal susceptibility testing
[1] = test system: A. fumigatus Af293; type: cell-based; conditions: diols tested from 1024 μg/mL to 0.0625 μg/mL, triplicate; for MIC: Aspergillus fumigatus, AF293, read-out: minimum inhibitory concentration (MIC), A. fumigatus
Method: (§1) A. fumigatus Af293, C. albicans Y4215 and Rhiozpus oryzae R0969, all clinical isolates of pathogenic species, were used to determine the antifungal activity of three different terminal diols: 1,6-hexanediol; 1,8-octanediol; and 1,10-decanediol (all purchased from Sigma-Aldrich, St. Louis, Mo.). Briefly, minimum inhibitory concentration (MIC) was determined following the Clinical Laboratory & Standards Institute (CLSI) M38-A2 broth microdilution antifungal susceptibility testing method. […] The experiment was performed in triplicate for each species and each diol.

[2] = test system: C. albicans Y4215; type: cell-based; conditions: diols tested from 1024 μg/mL to 0.0625 μg/mL, triplicate; for MIC: Candida albicans, Y4215, read-out: minimum inhibitory concentration (MIC), C. albicans
Method: as §1

[3] = test system: Rhiozpus oryzae R0969; type: cell-based, R. oryzae; conditions: diols tested from 1024 μg/mL to 0.0625 μg/mL, triplicate; for MIC: Rhizopus arrhizus, R0969, read-out: minimum inhibitory concentration (MIC), R. oryzae
Method: as §1

## OCCCCCCO [1,6-Hexanediol, 1,6-hexanediol]
[1]
  MIC: ≥ 1020 µg/mL
  minimum inhibitory concentration (MIC), A. fumigatus: did not demonstrate activity
[2]
  MIC: ≥ 1020 µg/mL
  minimum inhibitory concentration (MIC), C. albicans: did not demonstrate activity
[3]
  MIC: ≥ 1020 µg/mL
  minimum inhibitory concentration (MIC), R. oryzae: did not demonstrate activity

## OCCCCCCCCO [1,8-Octanediol, 1,8-octanediol]
[1]
  MIC: ≥ 1020 µg/mL
  minimum inhibitory concentration (MIC), A. fumigatus: did not demonstrate activity
[2]
  MIC: ≥ 1020 µg/mL
  minimum inhibitory concentration (MIC), C. albicans: did not demonstrate activity
[3]
  MIC: ≥ 1020 µg/mL
  minimum inhibitory concentration (MIC), R. oryzae: did not demonstrate activity

## OCCCCCCCCCCO [1,10-Decanediol, 1,10-decanediol]
[1]
  MIC: 256 µg/mL (≈ 1.47 mM)
[2]
  MIC: ≥ 1020 µg/mL
[3]
  MIC: 1020 µg/mL (≈ 5.88 mM)
